Measured values: patent publication US20060276465A1, “1,2-di(cyclic) substituted benzene compounds” (Eisai R&D Management Co., Ltd., priority 2003, published 2006)
pIC50: −log10 of the molar value. Counter-ions that a name gives are not always drawn.

What was measured:
[1] = system: human peripheral blood neutrophils; test: Human peripheral blood neutrophil adhesion system (adhesion to immobilized HUVEC, PMA-stimulated); type: cell-based; conditions: 0.75 h, concentration inhibiting by 50% the PMA-stimulated increase in the number of adhered BCECF-AM labeled neutrophils on HUVEC immobilized plate, 45 minutes, 37° C.
Experimental: Evaluation of Compounds in Human Peripheral Blood Neutrophil Adhesion System
<Preparation of Human Peripheral Blood Neutrophils>
To a plastic centrifugation tube containing 100 units of heparin sodium (Shimizu Pharmaceutical) was added 25 ml of fresh blood sampled from a healthy human. After adding and mixing therewith 8 ml of physiological saline (Otsuka Pharmaceutical) containing 6% Dextran (Nacalai), the mixture was allowed to stand at room temperature for 45 minutes for sedimentation of the erythrocytes. The resultant supernatant was transferred to another plastic centrifugation tube and combined with an equivalent volume of phosphate-buffered saline (hereinafter abbreviated as PBS; Sigma), and then centrifuged at 1600 rpm for 7 minutes at room temperature. The obtained hematocyte fraction was suspended in 4 ml of PBS, and the suspension was superposed on 4 ml of Ficoll-Paque™ PLUS (Amersham Biosciences). The resultant bilayer liquid was centrifuged at 2000 rpm for 30 minutes at room temperature, after which the supernatant was removed and the precipitate was suspended in 10 ml of PBS and centrifuged at 1200 rpm for 7 minutes, and the supernatant was removed. The resulting precipitate was suspended in 0.5 ml of PBS again, and then 10 ml of distilled water (Otsuka Pharmaceutical) was added, 0.5 ml of an aqueous solution containing 3 M NaCl was immediately added to restore isotonicity, the mixture was centrifuged at 1200 rpm for 7 minutes, and the obtained precipitate was suspended in PBS containing 1 mg/ml bovine serum albumin (hereinafter abbreviated as BSA; Sigma) again and stored in ice until being used for the experiment.
<Fluorescent Labeling of Human Peripheral Blood Neutrophils>
The obtained neutrophils were suspended in PBS containing 1 mg/ml BSA at 2×10^7 cells/ml. BCECF-AM (Dojin) was added to a final concentration of 5 μM, and the mixture was incubated at 37° C. for 45 minutes. It was then rinsed twice with PBS containing 1 mg/ml BSA by centrifugation, suspended again in PBS containing 1 mg/ml BSA at 5×10^7 cells/ml, and stored in ice until use.
<Preparation of HUVEC Immobilized Plate>
Human umbilical vein endothelial cells (hereinafter abbreviated as HUVEC) were suspended in MCDB131 medium (Chlorella Industries) containing 10% fetal calf serum and 30 μg/ml endothelial cell growth supplement (Becton Dickinson Bioscience). The suspension was added at 7.5×10^3 cells/well to a 96-well plate (Iwaki) immobilized with type I collagen, and cultured for 3 days in a CO2 incubator (Hirasawa). Upon confirming confluency of the cells, the supernatant was discarded, the plate was rinsed twice with PBS, and then PBS containing 0.1% glutaraldehyde (Kanto Kagaku) was added at 100 μl/well and the HUVECs were immobilized for 5 minutes. The supernatant was discarded and the plate was washed twice with PBS, and then PBS was added at 100 μl/well and the mixture was stored at 4° C. until use.
To 6.5 ml of RPMI-1640 medium (Sigma) containing 1 mg/ml of BSA were added 0.5 ml of a suspension of BCECF-AM labeled neutrophils at 5×10^7/ml stored in ice, which was mixed, and the mixture was added at 80 μl/well to a HUVEC immobilized plate. To this plate were immediately added 10 μl/well of a solution of the compound diluted at different concentrations with RPMI-1640 containing 1 mg/ml BSA, and 10 μl/well of 100 nM phorbol myristate acetate (hereinafter abbreviated as PMA; Sigma) in RPMI-1640 containing 1 mg/ml BSA, and the mixture was incubated in a CO2 incubator at 37° C. for 45 minutes. The supernatant was removed from the plate, which was then washed several times with RPMI-1640 at 100 μl/well, and then PBS containing 0.1% NP-40 (Calbiochem) was added thereto at 100 μl/well and the fluorescent intensity was measured with and ARVO™SX 1420 multi label counter (Wallac) to determine the number of adhered cells. […]

Jurkat cells = test: Jurkat cell adhesion system (adhesion to immobilized human fibronectin, PMA-stimulated); type: cell-based; conditions: concentration inhibiting by 50% the PMA-stimulated increase in the number of adhered Jurkat cells on human fibronectin, 45-60 minutes, 37° C.
Experimental: Evaluation of Compounds in Jurkat Cell Adhesion System
<Immobilization of Human Fibronectin in 96-Well Plate>
Human fibronectin (Becton Dickinson Biosciences) was diluted with phosphate-buffered saline (hereinafter abbreviated as PBS; Sigma) to 0.1-0.01 μg/ml, and the diluted solution was added to a 96-well plate (Becton Dickinson) at 50 μl/well, and allowed to stand overnight at 4° C. On the following day, the supernatant was removed from the plate, and then PBS containing 1% bovine serum albumin (hereinafter abbreviated as BSA; Sigma) was added thereto at 100 μl/well and incubation was performed at 37° C. for 2 hours in a CO2 incubator (Hirasawa).
The supernatant was removed from each plate and Jurkat cells suspended in RPMI-1640 (Sigma) containing 1 mg/ml BSA were added at 80 μl/well for 2.5×10^5 cells/well. The compound diluted to different concentrations with RPMI-1640 containing 1 mg/ml BSA was immediately added at 10 μl/well, and then 100 nM phorbol myristate acetate (hereinafter abbreviated as PMA; Sigma) in RPMI-1640 containing 1 mg/ml BSA was added at 10 μl/well and the plate was incubated in a CO2 incubator at 37° C. for 45-60 minutes. The supernatant was removed from the plate and each well was washed several times with 100 μl/well of RPMI-1640, after which 50 mM citrate buffer (pH 5.0) containing 3.75 mM p-nitrophenol-N-acetyl-β-D-glucosaminide (Sigma) and 0.25% Triton X-100 (Sigma) were added at 60 μl/well, and the mixture was placed in a CO2 incubator and incubated at 37° C. for 45 minutes. After incubation, 50 mM glycine buffer (pH 10.4) containing 5 mM EDTA was added at 90 μl/well, and the absorbance at 405 nm was measured with an EL340 Automated Microplate Reader (BIO-TEK) to determine the adhered cell count. The concentration of each compound which inhibited the increase in the number of adhered cells by the PMA-stimulation by 50% was recorded as the IC50 (μM).

Balb/c mice = test: DSS-induced colitis model; type: in vivo; conditions: male Balb/c mice; 1-3% DSS for 5-7 days; 30 mg/kg orally once a day for 5-7 successive days
Source text: Evaluation of Compounds in DSS-Induced Colitis Model
A 1-3% solution of dextran sulfate sodium (hereinafter abbreviated as DSS; ICN) in purified water (Otsuka Pharmaceutical) was fed freely to 6- to 7-week-old male Balb/c mice (Charles River Japan) for 5-7 days to induce colitis. Disease Activity Index (hereinafter abbreviated as DAI) scored based on fecal hardness, blood content in feces and body weight change, the number of neutrophils infiltrating the colon and the length of the colon were used as indexes to evaluate compounds. Each compound was suspended or dissolved in an aqueous solution containing 0.5% methyl cellulose (Wako), and orally administered at 30 mg/kg once a day, for 5-7 successive days.

Row | SMILES | pIC50 [1] | pIC50 (Jurkat cells) | improvement in comparison with the DSS control group (DAI, number of neutrophils infiltrating the colon, length of the colon) (Balb/c mice) | pIC50 ([1]; HUVEC) | pIC50 (Jurkat cells; Homo sapiens, Jurkat)
1 | CCC(=O)CN1CCN(c2ccccc2C2CCC(C)(C)CC2)CC1.Cl [Example 17, 1-{4-[2-(4,4-Dimethylcyclohexyl)phenyl]piperazin-1-yl}butan-2-one hydrochloride] | 4.75 | 5.21 | particularly good improvement |  | 
2 | CC1(C)C=C(c2ccccc2N2CCN(CC3CCOCC3)CC2)CC(C)(C)C1.Cl [Example 22, 1-(Tetrahydropyran-4-ylmethyl)-4-[2-(3,3,5,5-tetramethylcyclohex-1-enyl)phenyl]piperazine hydrochloride] | 4.74 | 5.66 | particularly good improvement |  | 
3 | CCCN1CCN(c2ccc(N3CCOCC3)cc2C2=CC(C)(C)CC(C)(C)C2)CC1.Cl [Example 28, 4-[4-(4-Propylpiperazin-1-yl)-3-(3,3,5,5-tetramethylcyclohex-1-enyl)phenyl]morpholine hydrochloride] | 5.07 | 5.51 | particularly good improvement |  | 
4 | CC(C)CN1CCN(c2ccccc2C2=CCC3(CC2)CC3)CC1.Cl [Example 34, 1-Isobutyl-4-(2-spiro[2.5]oct-5-en-6-ylphenyl)piperazine hydrochloride] |  |  | particularly good improvement |  | 
5 | CCCCN1CCN(c2ccccc2/C2=C/CCCCCC2)CC1 [Example 47, 1-Butyl-4-(2-cyclooct-1-enylphenyl)piperazine hydrochloride] |  |  |  | 4.93 | 5.30
6 | COCCN1CCN(c2ccc(N3CCC(OC)CC3)cc2C2=CCC3(CCCCC3)CC2)CC1 [Example 48, 1-(2-Methoxyethyl)-4-[4-(4-methoxypiperidin-1-yl)-2-spiro[5.5]undec-2-en-3-ylphenyl]piperazine hydrochloride] | 5.31 | 5.10 |  |  | 
7 | CC1(C)CCC(c2ccccc2N2CCN(Cc3ccoc3)CC2)CC1 [Example 69, 1-[2-(4,4-Dimethylcyclohexyl)phenyl]-4-furan-3-ylmethylpiperazine hydrochloride] | 5.03 | 5.44 |  |  | 
8 | COc1ccc(N2CCN(CC3CCOCC3)CC2)c(C2CC(C)(C)CC(C)(C)C2)c1 [Example 85, 1-[4-Methoxy-2-(3,3,5,5-tetramethylcyclohexyl)phenyl]-4-(tetrahydropyran-4-ylmethyl)piperazine hydrochloride] | 4.79 | 5.19 |  |  | 
9 | CCCCN1CCC(c2ccccc2C2CC(C)(C)CC(C)(C)C2)CC1 [Example 103, 1-Butyl-4-[2-(3,3,5,5-tetramethylcyclohexyl)phenyl]piperidine hydrochloride] | 4.71 | 5.35 |  |  | 
10 | CC1(C)CC(c2ccccc2N2CCN(CC3CC3)CC2)CC(C)(C)C1 [Example 117, 1-Cyclopropylmethyl-4-[2-(3,3,5,5-tetramethylcyclohexyl)phenyl]piperazine methanesulfonate] | 5.15 | 5.33 |  |  | 

Continued by rising pIC50 [1], values first:

Row | pIC50 [1] | pIC50 (Jurkat cells) | SMILES | improvement in comparison with the DSS control group (DAI, number of neutrophils infiltrating the colon, length of the colon) (Balb/c mice) | pIC50 ([1]; HUVEC) | pIC50 (Jurkat cells; Homo sapiens, Jurkat)
11 | 4.77 | 5.26 | CCC(=O)CN1CCN(c2ccc(N3CCOCC3)cc2C2=CCC(CC)(CC)CC2)CC1.Cl [Example 30, 1-{4-[2-(4,4-Diethylcyclohex-1-enyl)-4-morpholin-4-ylphenyl]piperazin-1-yl}butan-2-one hydrochloride] | particularly good improvement |  | 
12 | 4.92 | 5.59 | CCCCN1CCN(c2ccc(N3CCOCC3)cc2C2=CCC(C(C)(C)C)CC2)CC1.Cl (racemic) [Example 18, 4-[3-(4-t-Butylcyclohex-1-enyl)-4-(4-butylpiperazin-1-yl)phenyl]morpholine hydrochloride] | particularly good improvement |  | 
13 | 5.02 | 5.35 | CCCN1CCN(c2ccccc2C2CC(C)(C)CC(C)(C)C2)CC1.Cl [Example 31, 1-Propyl-4-[2-(3,3,5,5-tetramethylcyclohexyl)phenyl]piperazine hydrochloride] | particularly good improvement |  | 
14 | 5.04 | 5.35 | CCCCCN1CCN(c2cc(OC)ccc2C2CCC(C)(C)CC2)CC1.Cl [Example 1, 1-[2-(4,4-Dimethylcyclohexyl)-5-methoxyphenyl]-4-pentylpiperazine hydrochloride] | particularly good improvement |  | 
15 | 5.21 | 5.11 | COC1CCN(c2ccc(N3CCN(CC4CC4)CC3)c(C3=CCC(C(C)(C)C)CC3)c2)CC1.Cl (racemic) [Example 20, 1-[2-(4-t-Butylcyclohex-1-enyl)-4-(4-methoxypiperidin-1-yl)phenyl]-4-cyclopropylmethylpiperazine hydrochloride] | particularly good improvement |  | 
